According to ChEMBL document CHEMBL3758163, “Extended structure-activity study of thienopyrimidine-based EGFR inhibitors with evaluation of drug-like properties” (Eur J Med Chem, 2016):
Converted amounts (≈) assume the structure as drawn.

How the values were obtained:
[1] = biological target: Epidermal growth factor receptor (Homo sapiens, UniProt P00533); assay: Inhibition of EGFR (unknown origin) by Z -LYTE assay
[2] = Aqueous solubility of compound in 0.01 M PBS buffer at pH 7.4 after 2 hrs by turbidimetric assay; format: physicochemical
in vitro = conditions: human, Caco-2
Description: Efflux ratio of permeability from basolateral to apical side over apical to basolateral side in human Caco2 cells at 10 uM by LC-MS/MS analysis

[3] = Half-life in human liver microsomes at 3 uM by LC-MS/MS analysis; format: ADME
Danio rerio [4] = species: Danio rerio; assay: Toxicity in zebrafish embryo assessed as blood circulation defects; format: organism-based; conditions: in vivo
Danio rerio [5] = assay: Toxicity in zebrafish embryo assessed as cardiac oedema; format: organism-based; conditions: in vivo
[6] = Toxicity in zebrafish embryo assessed as morphological defects for 3.5 days; format: organism-based, Danio rerio
Danio rerio [7] = species: Danio rerio; assay: Toxicity in zebrafish embryo assessed as kinked tail; format: organism-based; conditions: in vivo
[8] = Toxicity in zebrafish embryo assessed as survival for 3.5 days; format: organism-based, Danio rerio; conditions: in vivo
[9] = Intrinsic clearance in human liver microsomes at 3 uM by LC-MS/MS analysis; format: ADME; conditions: read-out: CLH
Danio rerio [10] = species: Danio rerio; assay: Toxicity in zebrafish embryo assessed mortality after 50 to 70 hrs; format: organism-based; conditions: in vivo
Danio rerio [11] = species: Danio rerio; assay: Toxicity in zebrafish embryo assessed as effect on morphology at <12.5 uM; format: organism-based; conditions: in vivo
Danio rerio [12] = species: Danio rerio; assay: Toxicity in zebrafish embryo assessed mortality measured for 24 hrs; format: organism-based; conditions: in vivo

Chain of Epidermal growth factor receptor (P00533 whole entry): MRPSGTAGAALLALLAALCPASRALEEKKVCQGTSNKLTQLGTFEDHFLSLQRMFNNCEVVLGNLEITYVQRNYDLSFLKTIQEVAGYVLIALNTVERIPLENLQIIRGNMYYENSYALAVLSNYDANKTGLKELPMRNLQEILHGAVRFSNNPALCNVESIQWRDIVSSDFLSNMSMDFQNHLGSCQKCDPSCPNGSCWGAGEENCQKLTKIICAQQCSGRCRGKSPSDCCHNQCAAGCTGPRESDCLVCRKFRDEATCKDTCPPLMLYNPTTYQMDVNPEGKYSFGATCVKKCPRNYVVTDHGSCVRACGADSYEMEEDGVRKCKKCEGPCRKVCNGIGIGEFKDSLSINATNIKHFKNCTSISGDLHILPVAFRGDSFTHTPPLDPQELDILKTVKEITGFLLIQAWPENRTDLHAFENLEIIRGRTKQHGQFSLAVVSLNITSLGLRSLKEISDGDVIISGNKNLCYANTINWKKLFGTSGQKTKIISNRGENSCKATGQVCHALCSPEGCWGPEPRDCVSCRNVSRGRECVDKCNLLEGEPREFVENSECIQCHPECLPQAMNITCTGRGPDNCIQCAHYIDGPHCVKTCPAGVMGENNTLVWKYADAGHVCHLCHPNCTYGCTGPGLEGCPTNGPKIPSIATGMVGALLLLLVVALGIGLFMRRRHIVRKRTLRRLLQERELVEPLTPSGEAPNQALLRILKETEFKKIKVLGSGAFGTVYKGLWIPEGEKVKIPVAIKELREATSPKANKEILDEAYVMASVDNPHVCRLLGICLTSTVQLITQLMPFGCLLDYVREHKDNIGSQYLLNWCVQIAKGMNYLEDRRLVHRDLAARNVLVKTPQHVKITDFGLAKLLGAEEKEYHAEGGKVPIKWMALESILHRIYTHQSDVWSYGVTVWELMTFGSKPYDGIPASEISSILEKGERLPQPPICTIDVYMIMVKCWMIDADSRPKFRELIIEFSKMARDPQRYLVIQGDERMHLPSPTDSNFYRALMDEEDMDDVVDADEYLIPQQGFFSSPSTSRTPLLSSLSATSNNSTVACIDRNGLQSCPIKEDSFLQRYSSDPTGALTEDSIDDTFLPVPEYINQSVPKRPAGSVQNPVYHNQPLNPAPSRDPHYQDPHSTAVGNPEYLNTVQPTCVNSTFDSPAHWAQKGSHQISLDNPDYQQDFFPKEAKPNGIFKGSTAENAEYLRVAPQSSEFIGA

| SMILES | IC50 [1] [nM] | also measured |
| --- | --- | --- |
| C[C@@H](Nc1ncnc2sc(-c3ccc(S(C)(=O)=O)cc3)cc12)c1ccccc1 | 41 |  |
| C[C@@H](Nc1ncnc2sc(-c3cccc(S(C)(=O)=O)c3)cc12)c1ccccc1 | 26 |  |
| COC(=O)c1ccc(OC)c(-c2cc3c(N[C@H](C)c4ccccc4)ncnc3s2)c1 | 7 |  |
| COc1cccc(OC)c1-c1cc2c(N[C@H](CO)c3ccccc3)ncnc2s1 | 0.9 | Activity (Danio rerio [4]): Toxic; Activity (Danio rerio [5]): Toxic; EC50 at 3.5 days [6]: 12000 nM; half-life at 3 µM [3]: 0.567 h; Activity (Danio rerio [7]): Toxic; LC50 at 84 h [8]: 18000 nM; microsomal CLint at 3 µM [9]: 41 µL/min/mg; Activity (Danio rerio [10]): Toxic |
| OCc1ccc(-c2cc3c(Nc4ccccc4)ncnc3s2)cc1 | 21 |  |
| COc1cccc(-c2cc3c(N[C@H](C)c4ccccc4)ncnc3s2)c1OC | 13 |  |
| OC[C@@H](Nc1ncnc2sc(-c3ccccc3)cc12)c1ccccc1 | 9 |  |
| C[C@@H](Nc1ncnc2sc(-c3cccc(C(=O)O)c3)cc12)c1ccccc1 | 8 |  |
| C[C@@H](Nc1ncnc2sc(-c3ccc(C=O)cc3F)cc12)c1ccccc1 | 59 |  |
| C[C@@H](Nc1ncnc2sc(-c3ccc(CO)cc3F)cc12)c1ccccc1 | 13 |  |
| OCc1ccc(-c2cc3c(NCc4ccccc4)ncnc3s2)cc1 | 48 |  |
| C[C@@H](Nc1ncnc2sc(-c3ccc(C(=O)O)cc3)cc12)c1ccccc1 | 19 |  |
| COc1cc(C(=O)NCCN(C)C)cc(OC)c1-c1cc2c(N[C@H](C)c3ccccc3)ncnc2s1 | 0.4 | solubility kinetic at 2 h [2]: 65 µM (≈ 32.9 µg/mL); efflux ratio at 10 µM (in vitro): 40; Activity (Danio rerio [11]): Non-toxic; Activity (Danio rerio [12]): Toxic; half-life at 3 µM [3]: 2.37 h; LC50 at 84 h [8]: 15000 nM; microsomal CLint at 3 µM [9]: 9.7 µL/min/mg |
| COC(=O)c1ccc(-c2cc3c(N[C@H](C)c4ccccc4)ncnc3s2)c(OC)c1 | 20 |  |
| COc1c(C=O)cccc1-c1cc2c(N[C@H](C)c3ccccc3)ncnc2s1 | 21 |  |
| COC(=O)c1cccc(-c2cc3c(N[C@H](C)c4ccccc4)ncnc3s2)c1OC | 9 |  |

Now from value to compound, other results behind:

| IC50 [1] [nM] | SMILES | also measured |
| --- | --- | --- |
| 1.5 | COc1c(CO)cccc1-c1cc2c(N[C@H](C)c3ccccc3)ncnc2s1 |  |
| 5 | COc1cc(CO)ccc1-c1cc2c(NCc3ccccc3)ncnc2s1 |  |
| 7 | C[C@@H](Nc1ncnc2sc(-c3ccc(C(N)=O)cc3)cc12)c1ccccc1 |  |
| 6 | C[C@@H](Nc1ncnc2sc(-c3cccc(C=O)c3)cc12)c1ccccc1 |  |
| 2 | COc1cc(C(N)=O)ccc1-c1cc2c(N[C@H](C)c3ccccc3)ncnc2s1 |  |
| 0.9 | C[C@@H](Nc1ncnc2sc(-c3cccc(C(=O)NCCN(C)C)c3)cc12)c1ccccc1 | solubility kinetic at 2 h [2]: > 100 µM; efflux ratio at 10 µM (in vitro): 8.9; half-life at 3 µM [3]: 1.58 h |
| 3 | COc1c(C(=O)NCCN(C)C)cccc1-c1cc2c(N[C@H](C)c3ccccc3)ncnc2s1 |  |
| 0.5 | COc1cc(C(=O)NCCN(C)C)ccc1-c1cc2c(N[C@H](C)c3ccccc3)ncnc2s1 | solubility kinetic at 2 h [2]: > 100 µM; efflux ratio at 10 µM (in vitro): 18; half-life at 3 µM [3]: 3.78 h; microsomal CLint at 3 µM [9]: 6.1 µL/min/mg |
| 4 | COC(=O)c1cc(OC)c(-c2cc3c(N[C@H](C)c4ccccc4)ncnc3s2)c(OC)c1 |  |
| 6 | COc1cc(F)ccc1-c1cc2c(N[C@H](C)c3ccccc3)ncnc2s1 |  |
| 3 | COc1ccc(C=O)cc1-c1cc2c(N[C@H](C)c3ccccc3)ncnc2s1 |  |
| 5 | COc1ccc(CO)cc1-c1cc2c(N[C@H](C)c3ccccc3)ncnc2s1 |  |
| 5 | C[C@@H](Nc1ncnc2sc(-c3cccc(C(N)=O)c3)cc12)c1ccccc1 |  |
| 5 | COc1cc(C=O)ccc1-c1cc2c(Nc3ccc(F)c(Cl)c3)ncnc2s1 |  |
| 2 | COc1cccc(OC)c1-c1cc2c(N[C@H](C)c3ccccc3)ncnc2s1 |  |
| 3 | OCc1cccc(-c2cc3c(N[C@H](CO)c4ccccc4)ncnc3s2)c1 |  |
| 6 | COc1cc(C=O)ccc1-c1cc2c(NCc3ccccc3)ncnc2s1 |  |
